Laboratory results reported in ChEMBL document CHEMBL5226282, “TLR2 Agonistic Small Molecules: Detailed Structure-Activity Relationship, Applications, and Future Prospects” (J Med Chem, 2021).
pEC50: −log10 of the molar value. Blank lines part the entries; values can stand above or below the molecule they belong to.

Experiments:
[1] = molecular target: Toll-like receptor 2 (Mus musculus) (UniProt Q9QUN7); test: Agonist activity at mouse TLR2 transfected in HEK293 cells relative to control; type: cell-based; design: concentration or dose not given beside the values
Chain of Toll-like receptor 2 (Mus musculus) (Q9QUN7 whole entry): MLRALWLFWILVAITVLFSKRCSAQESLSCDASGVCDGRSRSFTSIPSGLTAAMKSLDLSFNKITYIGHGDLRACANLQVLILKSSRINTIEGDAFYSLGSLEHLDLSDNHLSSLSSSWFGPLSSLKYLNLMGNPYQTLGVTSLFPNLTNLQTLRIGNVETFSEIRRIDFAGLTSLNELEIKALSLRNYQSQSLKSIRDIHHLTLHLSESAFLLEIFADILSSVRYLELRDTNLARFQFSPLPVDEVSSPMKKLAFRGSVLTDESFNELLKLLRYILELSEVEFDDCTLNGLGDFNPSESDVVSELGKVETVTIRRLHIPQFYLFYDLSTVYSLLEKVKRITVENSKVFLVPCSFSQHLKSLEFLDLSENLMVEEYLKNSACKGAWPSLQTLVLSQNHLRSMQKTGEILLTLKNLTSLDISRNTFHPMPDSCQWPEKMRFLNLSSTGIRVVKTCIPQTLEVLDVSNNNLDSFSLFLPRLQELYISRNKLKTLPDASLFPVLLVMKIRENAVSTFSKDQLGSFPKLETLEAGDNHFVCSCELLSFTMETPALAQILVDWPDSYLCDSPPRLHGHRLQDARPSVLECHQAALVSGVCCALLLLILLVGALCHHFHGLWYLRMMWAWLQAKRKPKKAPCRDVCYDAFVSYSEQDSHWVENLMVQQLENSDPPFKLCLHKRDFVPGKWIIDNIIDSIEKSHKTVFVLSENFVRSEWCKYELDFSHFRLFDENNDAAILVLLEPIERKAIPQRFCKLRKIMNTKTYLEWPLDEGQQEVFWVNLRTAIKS

Toll-like receptor 2 [2] = molecular target: T1, Toll-like receptor 2 (Homo sapiens, UniProt O60603); test: Agonist activity at TLR2 (unknown origin)
T1 sequence (O60603 whole entry): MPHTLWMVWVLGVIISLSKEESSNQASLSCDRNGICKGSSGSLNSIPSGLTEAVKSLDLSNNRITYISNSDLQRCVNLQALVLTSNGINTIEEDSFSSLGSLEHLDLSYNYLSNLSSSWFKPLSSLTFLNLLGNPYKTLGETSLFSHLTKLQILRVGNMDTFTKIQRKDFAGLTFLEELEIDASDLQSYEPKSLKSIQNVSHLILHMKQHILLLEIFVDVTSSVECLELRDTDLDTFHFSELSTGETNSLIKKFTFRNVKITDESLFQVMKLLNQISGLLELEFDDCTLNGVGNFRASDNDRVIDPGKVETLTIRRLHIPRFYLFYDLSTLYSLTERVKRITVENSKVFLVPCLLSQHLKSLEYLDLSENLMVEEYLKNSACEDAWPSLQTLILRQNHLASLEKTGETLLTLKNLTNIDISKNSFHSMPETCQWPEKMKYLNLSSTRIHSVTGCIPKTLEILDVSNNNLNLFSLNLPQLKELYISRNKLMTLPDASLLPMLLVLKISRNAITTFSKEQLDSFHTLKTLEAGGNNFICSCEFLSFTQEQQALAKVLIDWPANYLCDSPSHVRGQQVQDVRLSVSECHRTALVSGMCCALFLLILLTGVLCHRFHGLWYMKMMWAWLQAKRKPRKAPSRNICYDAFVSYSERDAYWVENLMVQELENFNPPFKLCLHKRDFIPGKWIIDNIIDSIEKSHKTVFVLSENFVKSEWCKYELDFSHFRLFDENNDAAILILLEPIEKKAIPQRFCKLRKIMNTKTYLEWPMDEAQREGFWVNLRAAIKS

Toll-like receptor 2 [3] = molecular target: T1, Toll-like receptor 2; test: Agonist activity at human TLR2 transfected in HEK293 cells; type: cell-based

SMILES: CCCCCCCC(=O)OCC(CSC[C@@H](NC(=O)Cc1ccccc1)C(=O)N[C@@H](CO)C(=O)N[C@@H](CCCCN)C(=O)N[C@@H](CCCCN)C(=O)N[C@@H](CCCCN)C(=O)N[C@@H](CCCCN)C(=O)O)OC(=O)CCCCCCC (some centres not stated)
Activity [1]: 11%

SMILES: CCCCCCCCCCCCCCCC(=O)N[C@H](CSCC(COC(=O)CCCCC)OC(=O)CCCCC)C(=O)N[C@@H](CO)C(=O)N[C@@H](CCCCN)C(=O)N[C@@H](CCCCN)C(=O)N[C@@H](CCCCN)C(=O)N[C@@H](CCCCN)C(=O)O (some centres not stated)
Activity [1]: 0%

SMILES: CCCCCCCCCCCCCCCC(=O)OCCCC[C@H](CS[C@H](N)C(=O)N[C@@H](CO)C(=O)N[C@@H](CCCCN)C(=O)N[C@@H](CCCCN)C(=O)N[C@@H](CCCCN)C(=O)N[C@@H](CCCCN)C(=O)N[C@@H](CO)C(=O)N[C@@H](CC(C)C)C(=O)N[C@@H](CC(C)C)C(=O)N[C@@H](CCSC)C(=O)N[C@@H](Cc1c[nH]c2ccccc12)C(=O)N[C@H](C(=O)N[C@H](C(=O)N[C@@H](CCC(N)=O)C(=O)N[C@H](C(=O)O)C(C)C)[C@@H](C)O)[C@@H](C)CC)OC(=O)CCCCCCCCCCCCCCC
pEC50 (Toll-like receptor 2 [2]): 6.52

SMILES: CCCCCCCCCC(=O)N[C@H](CSCC(COC(=O)CCCCC)OC(=O)CCCCC)C(=O)N[C@@H](CO)C(=O)N[C@@H](CCCCN)C(=O)N[C@@H](CCCCN)C(=O)N[C@@H](CCCCN)C(=O)N[C@@H](CCCCN)C(=O)O (some centres not stated)
Activity [1]: < 10%

SMILES: CCCCCCCCCCCCCCCC(=O)OCC[C@@H](CS[C@H](N)C(=O)N[C@@H](CO)C(=O)N[C@@H](CCCCN)C(=O)N[C@@H](CCCCN)C(=O)N[C@@H](CCCCN)C(=O)N[C@@H](CCCCN)C(=O)N[C@@H](CO)C(=O)N[C@@H](CC(C)C)C(=O)N[C@@H](CC(C)C)C(=O)N[C@@H](CCSC)C(=O)N[C@@H](Cc1c[nH]c2ccccc12)C(=O)N[C@H](C(=O)N[C@H](C(=O)N[C@@H](CCC(N)=O)C(=O)N[C@H](C(=O)O)C(C)C)[C@@H](C)O)[C@@H](C)CC)OC(=O)CCCCCCCCCCCCCCC
pEC50 (Toll-like receptor 2 [2]): 4.34

SMILES: CCCCCCCCCCCCCCCC(=O)OCC(CSC[C@@H](NC(=O)CCCCCCCCC)C(=O)N[C@@H](CO)C(=O)N[C@@H](CCCCN)C(=O)N[C@@H](CCCCN)C(=O)N[C@@H](CCCCN)C(=O)N[C@@H](CCCCN)C(=O)O)OC(=O)CCCCCCCCCCCCCCC (some centres not stated)
Activity ([1]; filed as agonist): > 100%

SMILES: CCCCCCCCCCCCCCCC(=O)OCC[C@H](CS[C@H](N)C(=O)N[C@@H](CO)C(=O)N[C@@H](CCCCN)C(=O)N[C@@H](CCCCN)C(=O)N[C@@H](CCCCN)C(=O)N[C@@H](CCCCN)C(=O)N[C@@H](CO)C(=O)N[C@@H](CC(C)C)C(=O)N[C@@H](CC(C)C)C(=O)N[C@@H](CCSC)C(=O)N[C@@H](Cc1c[nH]c2ccccc12)C(=O)N[C@H](C(=O)N[C@H](C(=O)N[C@@H](CCC(N)=O)C(=O)N[C@H](C(=O)O)C(C)C)[C@@H](C)O)[C@@H](C)CC)OC(=O)CCCCCCCCCCCCCCC
pEC50 (Toll-like receptor 2 [2]): 6.22

SMILES: CCCCCCCC(=O)OCC(CSC[C@@H](NC(=O)CCCCC)C(=O)N[C@@H](CO)C(=O)N[C@@H](CCCCN)C(=O)N[C@@H](CCCCN)C(=O)N[C@@H](CCCCN)C(=O)N[C@@H](CCCCN)C(=O)O)OC(=O)CCCCCCC (some centres not stated)
Activity [1]: 11%

SMILES: CCCCCCCCCCCCCCCC(=O)N[C@H](CSCC(COC(=O)CC)OC(=O)CC)C(=O)N[C@@H](CO)C(=O)N[C@@H](CCCCN)C(=O)N[C@@H](CCCCN)C(=O)N[C@@H](CCCCN)C(=O)N[C@@H](CCCCN)C(=O)O (some centres not stated)
Activity [1]: 26%

SMILES: CCCCCC(=O)N[C@H](CSCC(COC(=O)CC)OC(=O)CC)C(=O)N[C@@H](CO)C(=O)N[C@@H](CCCCN)C(=O)N[C@@H](CCCCN)C(=O)N[C@@H](CCCCN)C(=O)N[C@@H](CCCCN)C(=O)O (some centres not stated)
Activity [1]: 11%

SMILES: CCCCCCCCCCCCCCCC(=O)OC[C@H](CS[C@H](NC(C)=O)C(=O)N[C@@H](CO)C(=O)N[C@@H](CCCCN)C(=O)N[C@@H](CCCCN)C(=O)N[C@@H](CCCCN)C(=O)N[C@@H](CCCCN)C(=O)N[C@@H](CO)C(=O)N[C@@H](CC(C)C)C(=O)N[C@@H](CC(C)C)C(=O)N[C@@H](CCSC)C(=O)N[C@@H](Cc1c[nH]c2ccccc12)C(=O)N[C@H](C(=O)N[C@H](C(=O)N[C@@H](CCC(N)=O)C(=O)N[C@H](C(=O)O)C(C)C)[C@@H](C)O)[C@@H](C)CC)OC(=O)CCCCCCCCCCCCCCC
pEC50 (Toll-like receptor 2 [2]): 6.55

SMILES: CCCCCCCCCCCC(=O)OC[C@H](CSC[C@@H](N)C(=O)NC(CC)COC)OC(=O)CCCCCCCCCCC (some centres not stated)
pEC50 (Toll-like receptor 2 [3]): 7.14

SMILES: CCCCCCCCCCCCCCCC(=O)N[C@@H](SC[C@@H](COC(=O)CCCCCCCCCCCCCCC)OC(=O)CCCCCCCCCCCCCCC)C(=O)N[C@@H](CO)C(=O)N[C@@H](CCCCN)C(=O)N[C@@H](CCCCN)C(=O)N[C@@H](CCCCN)C(=O)N[C@@H](CCCCN)C(=O)N[C@@H](CO)C(=O)N[C@@H](CC(C)C)C(=O)N[C@@H](CC(C)C)C(=O)N[C@@H](CCSC)C(=O)N[C@@H](Cc1c[nH]c2ccccc12)C(=O)N[C@H](C(=O)N[C@H](C(=O)N[C@@H](CCC(N)=O)C(=O)N[C@H](C(=O)O)C(C)C)[C@@H](C)O)[C@@H](C)CC
pEC50 (Toll-like receptor 2 [2]): 4.64

SMILES: CCCCCCCCCCCC(=O)OC[C@H](CSC[C@@H](N)C(=O)NCCCCCCCCCC(=O)O)OC(=O)CCCCCCCCCCC
pEC50 (Toll-like receptor 2 [3]): 5.36

SMILES: CCCCCCCCCCCCCC(=O)N[C@H](CSCC(COC(=O)CCCCC)OC(=O)CCCCC)C(=O)N[C@@H](CO)C(=O)N[C@@H](CCCCN)C(=O)N[C@@H](CCCCN)C(=O)N[C@@H](CCCCN)C(=O)N[C@@H](CCCCN)C(=O)O (some centres not stated)
Activity [1]: 0%

SMILES: CCCCCCCCCCCCCCCC(=O)N[C@H](CSCC(COC(=O)CCCCCCC)OC(=O)CCCCCCC)C(=O)N[C@@H](CO)C(=O)N[C@@H](CCCCN)C(=O)N[C@@H](CCCCN)C(=O)N[C@@H](CCCCN)C(=O)N[C@@H](CCCCN)C(=O)O (some centres not stated)
Activity [1]: 0%

SMILES: CCCCCCCCCCCCCCCC(=O)OCC(CSC[C@@H](NC(=O)Cc1ccccc1)C(=O)N[C@@H](CO)C(=O)N[C@@H](CCCCN)C(=O)N[C@@H](CCCCN)C(=O)N[C@@H](CCCCN)C(=O)N[C@@H](CCCCN)C(=O)O)OC(=O)CCCCCCCCCCCCCCC (some centres not stated)
Activity ([1]; filed as agonist): > 100%

SMILES: CCCCCCCCCCCC(=O)OC[C@H](CSC[C@@H](N)C(=O)NCCCn1ccnc1)OC(=O)CCCCCCCCCCC
pEC50 (Toll-like receptor 2 [3]): 6.39

SMILES: CCCCCCCCCCCC(=O)OC[C@H](CSC[C@@H](N)C(=O)NCCCOCCOCCOCCCNC(=O)C(N)CS)OC(=O)CCCCCCCCCCC (some centres not stated)
pEC50 (Toll-like receptor 2 [3]): 6.61

SMILES: CCCCCCCCCCCCCCCC(=O)OCC(CSC[C@@H](NC(=O)CCCCC)C(=O)N[C@@H](CO)C(=O)N[C@@H](CCCCN)C(=O)N[C@@H](CCCCN)C(=O)N[C@@H](CCCCN)C(=O)N[C@@H](CCCCN)C(=O)O)OC(=O)CCCCCCCCCCCCCCC (some centres not stated)
Activity ([1]; filed as agonist): > 100%

More lines, now with the values ahead:

Activity ([1]; filed as agonist): 51%
SMILES: CCCCCCCCCCCCCCCC(=O)N[C@H](CSCC(COC(=O)CCCCCCCCCCCCCCC)OC(=O)CCCCCCCCCCCCCCC)C(=O)N[C@@H](CO)C(=O)N[C@@H](CCCCN)C(=O)N[C@@H](CCCCN)C(=O)N[C@@H](CCCCN)C(=O)N[C@@H](CCCCN)C(=O)O (some centres not stated)

Activity [1]: 0%
SMILES: CCCCCC(=O)OCC(CSC[C@@H](NC(=O)Cc1ccccc1)C(=O)N[C@@H](CO)C(=O)N[C@@H](CCCCN)C(=O)N[C@@H](CCCCN)C(=O)N[C@@H](CCCCN)C(=O)N[C@@H](CCCCN)C(=O)O)OC(=O)CCCCC (some centres not stated)

Activity ([1]; filed as agonist): 51%
SMILES: CCCCCCCCCCCCCC(=O)N[C@H](CSCC(COC(=O)CCCCCCC)OC(=O)CCCCCCC)C(=O)N[C@@H](CO)C(=O)N[C@@H](CCCCN)C(=O)N[C@@H](CCCCN)C(=O)N[C@@H](CCCCN)C(=O)N[C@@H](CCCCN)C(=O)O (some centres not stated)

Activity [1]: 11%
SMILES: CCCCCCCCCC(=O)N[C@H](CSCC(COC(=O)CCCCCCC)OC(=O)CCCCCCC)C(=O)N[C@@H](CO)C(=O)N[C@@H](CCCCN)C(=O)N[C@@H](CCCCN)C(=O)N[C@@H](CCCCN)C(=O)N[C@@H](CCCCN)C(=O)O (some centres not stated)

Activity [1]: 26%
SMILES: CCCCCCCCCC(=O)N[C@H](CSCC(COC(=O)CC)OC(=O)CC)C(=O)N[C@@H](CO)C(=O)N[C@@H](CCCCN)C(=O)N[C@@H](CCCCN)C(=O)N[C@@H](CCCCN)C(=O)N[C@@H](CCCCN)C(=O)O (some centres not stated)

pEC50 (Toll-like receptor 2 [2]): 6.42
SMILES: CCCCCCCCCCCCCCCC(=O)OCCC[C@H](CS[C@H](N)C(=O)N[C@@H](CO)C(=O)N[C@@H](CCCCN)C(=O)N[C@@H](CCCCN)C(=O)N[C@@H](CCCCN)C(=O)N[C@@H](CCCCN)C(=O)N[C@@H](CO)C(=O)N[C@@H](CC(C)C)C(=O)N[C@@H](CC(C)C)C(=O)N[C@@H](CCSC)C(=O)N[C@@H](Cc1c[nH]c2ccccc12)C(=O)N[C@H](C(=O)N[C@H](C(=O)N[C@@H](CCC(N)=O)C(=O)N[C@H](C(=O)O)C(C)C)[C@@H](C)O)[C@@H](C)CC)OC(=O)CCCCCCCCCCCCCCC

pEC50 (Toll-like receptor 2 [2]): 6.33
SMILES: CCCCCCCCCCCCCCCC(=O)OC[C@H](CS[C@H](N)C(=O)N[C@@H](CO)C(=O)N[C@@H](CCCCN)C(=O)N[C@@H](CCCCN)C(=O)N[C@@H](CCCCN)C(=O)N[C@@H](CCCCN)C(=O)N[C@@H](CO)C(=O)N[C@@H](CC(C)C)C(=O)N[C@@H](CC(C)C)C(=O)N[C@@H](CCSC)C(=O)N[C@@H](Cc1c[nH]c2ccccc12)C(=O)N[C@H](C(=O)N[C@H](C(=O)N[C@@H](CCC(N)=O)C(=O)N[C@H](C(=O)O)C(C)C)[C@@H](C)O)[C@@H](C)CC)OC(=O)CCCCCCCCCCCCCCC

Activity ([1]; filed as agonist): > 100%
SMILES: CCCCCCCCCCCCCCCC(=O)OCC(CSC[C@@H](NC(=O)CCCCCCCCCCCCC)C(=O)N[C@@H](CO)C(=O)N[C@@H](CCCCN)C(=O)N[C@@H](CCCCN)C(=O)N[C@@H](CCCCN)C(=O)N[C@@H](CCCCN)C(=O)O)OC(=O)CCCCCCCCCCCCCCC (some centres not stated)

Activity [1]: 0%
SMILES: CCCCCC(=O)N[C@H](CSCC(COC(=O)CCCCC)OC(=O)CCCCC)C(=O)N[C@@H](CO)C(=O)N[C@@H](CCCCN)C(=O)N[C@@H](CCCCN)C(=O)N[C@@H](CCCCN)C(=O)N[C@@H](CCCCN)C(=O)O (some centres not stated)

Activity ([1]; filed as agonist): 51%
SMILES: CCCCCCCCCCCCCC(=O)N[C@H](CSCC(COC(=O)CC)OC(=O)CC)C(=O)N[C@@H](CO)C(=O)N[C@@H](CCCCN)C(=O)N[C@@H](CCCCN)C(=O)N[C@@H](CCCCN)C(=O)N[C@@H](CCCCN)C(=O)O (some centres not stated)

Activity [1]: 0%
SMILES: CCC(=O)OCC(CSC[C@@H](NC(=O)Cc1ccccc1)C(=O)N[C@@H](CO)C(=O)N[C@@H](CCCCN)C(=O)N[C@@H](CCCCN)C(=O)N[C@@H](CCCCN)C(=O)N[C@@H](CCCCN)C(=O)O)OC(=O)CC (some centres not stated)

pEC50 (Toll-like receptor 2 [3]): 7.72
SMILES: CCCCCCCCCCCC(=O)OC[C@H](CSC[C@@H](N)C(=O)N[C@H](C)COCCCP(=O)(O)O)OC(=O)CCCCCCCCCCC
